Results from US5591438A, “Natamycin recovery” (Bio-Technical Resources L.P., priority 1994, dated 1997).
Converted amounts (≈) assume the structure as drawn.

What was measured:
Assay type in all cases: physicochemical
[1] = Ester formation in methanol with 40 g/L CaCl2 (stability of natamycin); details: for Methyl Ester (% of product) / Natamycin (concentration in methanol with CaCl2): methanol with 40 g/L CaCl2
Experimental: This process can be run at pH 2-9, preferably at pH 6-8. If the pH is low, shorter extraction times should be used because acidic conditions promote natamycin methyl ester formation. (See Table 4) If the pH is above 6, ester formation is slower. Any reasonable temperature may be used (i.e. 20°-30° C.).
Ester Formation in Methanol with 40 g/L CaCl2

[2] = physchem; details: methanol/cacl2, organic solvent or mixture, Solubility of Natamycin in Methanol/CaCl2 Extractant
Text: To precipitate a high percentage of the natamycin, the water content of the extraction liquor should be increased to at least 50% by volume. Table 3 indicates the solubility of natamycin in a methanol/water/calcium chloride solution as a function of water content.
Solubility of Natamycin in Methanol/CaCl2 *
Extractant at Various Water Concentrations

[3] = Natamycin methyl ester formation in methanol (stability of natamycin in acidified methanol)
Experimental: Formation of natamycin methyl ester, an undesired by-product, depends on the pH, the natamycin-methanol contact time, and the temperature (see Table 1). It is important that this step be carried out at a temperature of about 0°-25° C., since formation of natamycin methyl ester and other undesirable by-products is minimized. The higher the temperature or the longer the contact time, the greater the by-product production at a given pH. To avoid excessive natamycin methyl ester formation at 15°-25° C., short contact times, i.e., 0.5 hr or less, should be used. At about […], the extraction time should not exceed about 1.5 hr. An extraction temperature of about 0°-15° C. is preferred.
Natamycin Methyl Ester Formation in Methanol

[4] = physchem
Text: Since water content of the extraction medium depends on the amount of water in the feed stream, it is desirable to remove as much water as possible from the feed stream before Step 1. If the feed stream contains about 70% by volume water, about three times as much methanol is required than when starting with a substantially dry feed stream. If the feed stream contains about 40% by volume water, about twice as much methanol is required.
The pH depends to some extent on the water content of the extraction medium and the yield desired. To obtain a precipitation yield of about 90% or more, the natamycin concentration in the extraction medium should be about 40 g/L. In the absence of water this requires a pH of about 4.5. At about 30% water/70% methanol (by volume) this requires a pH of about 2.5 (Table 2).
Solubility of Natamycin in Methanol and Methanol/Water

Methyl Ester (% of product) ([1]; 5 °C, pH 4.4, 0 hr): 0 % of product
Natamycin (concentration in methanol with CaCl2) ([1]; 5 °C, pH 4.4, 0 hr): 60 g/L
Methyl Ester (% of product) ([1]; 5 °C, pH 4.4, 8 hr): 0.5 % of product
Natamycin (concentration in methanol with CaCl2) ([1]; 5 °C, pH 4.4, 8 hr): 60 g/L
Methyl Ester (% of product) ([1]; 23 °C, pH 4.4, 0 hr): 0 % of product
Natamycin (concentration in methanol with CaCl2) ([1]; 23 °C, pH 4.4, 0 hr): 72 g/L
Methyl Ester (% of product) ([1]; 23 °C, pH 4.4, 6 hr): 5.0 % of product
Natamycin (concentration in methanol with CaCl2) ([1]; 23 °C, pH 4.4, 6 hr): 67 g/L
Methyl Ester (% of product) ([1]; 23 °C, pH 5.3, 0 hr): 0 % of product
Natamycin (concentration in methanol with CaCl2) ([1]; 23 °C, pH 5.3, 0 hr): 51 g/L
Methyl Ester (% of product) ([1]; 23 °C, pH 5.3, 20 hr): 2.4 % of product
Natamycin (concentration in methanol with CaCl2) ([1]; 23 °C, pH 5.3, 20 hr): 48 g/L
Methyl Ester (% of product) ([1]; 23 °C, pH 6.1, 0 hr): 0 % of product
Natamycin (concentration in methanol with CaCl2) ([1]; 23 °C, pH 6.1, 0 hr): 51 g/L
Methyl Ester (% of product) ([1]; 23 °C, pH 6.1, 20 hr): 1.1 % of product
Natamycin (concentration in methanol with CaCl2) ([1]; 23 °C, pH 6.1, 20 hr): 49 g/L
natamycin methyl ester formation ([1]; methanol/CaCl2, pH above 6): slower
solubility [2]: 91 mg/mL (≈ 137 mM)
Methyl Ester (% by weight of product) ([3]; 4 °C, pH 2.4, 0 hr): 0.4 % by weight of product
Natamycin (concentration in methanol) ([3]; 4 °C, pH 2.4, 0 hr): 42 g/L
Methyl Ester (% by weight of product) ([3]; 4 °C, pH 2.4, 2 hr): 1.3 % by weight of product
Natamycin (concentration in methanol) ([3]; 4 °C, pH 2.4, 2 hr): 42 g/L
Methyl Ester (% by weight of product) ([3]; 4 °C, pH 2.4, 8.5 hr): 2.7 % by weight of product
Natamycin (concentration in methanol) ([3]; 4 °C, pH 2.4, 8.5 hr): 39 g/L
Methyl Ester (% by weight of product) ([3]; 4 °C, pH 2.4, 19 hr): 5.2 % by weight of product
Natamycin (concentration in methanol) ([3]; 4 °C, pH 2.4, 19 hr): 37 g/L
Methyl Ester (% by weight of product) ([3]; 23 °C, pH 2.4, 0 hr): 0 % by weight of product
Natamycin (concentration in methanol) ([3]; 23 °C, pH 2.4, 0 hr): 44 g/L
Methyl Ester (% by weight of product) ([3]; 23 °C, pH 2.4, 1 hr): 3.9 % by weight of product
Natamycin (concentration in methanol) ([3]; 23 °C, pH 2.4, 1 hr): 42 g/L
Methyl Ester (% by weight of product) ([3]; 23 °C, pH 2.4, 2 hr): 7.3 % by weight of product
Natamycin (concentration in methanol) ([3]; 23 °C, pH 2.4, 2 hr): 41 g/L
Methyl Ester (% by weight of product) ([3]; 23 °C, pH 2.4, 3 hr): 9.7 % by weight of product
Natamycin (concentration in methanol) ([3]; 23 °C, pH 2.4, 3 hr): 38 g/L
Methyl Ester (% by weight of product) ([3]; 23 °C, pH 3.2, 0 hr): 0 % by weight of product
Natamycin (concentration in methanol) ([3]; 23 °C, pH 3.2, 0 hr): 38 g/L
Methyl Ester (% by weight of product) ([3]; 23 °C, pH 3.2, 1 hr): 2.3 % by weight of product
Natamycin (concentration in methanol) ([3]; 23 °C, pH 3.2, 1 hr): 38 g/L
Methyl Ester (% by weight of product) ([3]; 23 °C, pH 3.2, 2 hr): 3.9 % by weight of product
Natamycin (concentration in methanol) ([3]; 23 °C, pH 3.2, 2 hr): 37 g/L
Methyl Ester (% by weight of product) ([3]; 23 °C, pH 3.2, 4 hr): 7.4 % by weight of product
Natamycin (concentration in methanol) ([3]; 23 °C, pH 3.2, 4 hr): 34 g/L
Methyl Ester (% by weight of product) ([3]; 23 °C, pH 3.2, 6 hr): 9.2 % by weight of product
Natamycin (concentration in methanol) ([3]; 23 °C, pH 3.2, 6 hr): 32 g/L
Methyl Ester (% by weight of product) ([3]; 23 °C, pH 3.2, 16 hr): 14 % by weight of product
Natamycin (concentration in methanol) ([3]; 23 °C, pH 3.2, 16 hr): 23 g/L
Methyl Ester (% by weight of product) ([3]; 23 °C, pH 4.0, 0 hr): 0 % by weight of product
Natamycin (concentration in methanol) ([3]; 23 °C, pH 4.0, 0 hr): 41 g/L
Methyl Ester (% by weight of product) ([3]; 23 °C, pH 4.0, 2 hr): 2.3 % by weight of product
Natamycin (concentration in methanol) ([3]; 23 °C, pH 4.0, 2 hr): 40 g/L
Methyl Ester (% by weight of product) ([3]; 23 °C, pH 4.0, 4 hr): 3.7 % by weight of product
Natamycin (concentration in methanol) ([3]; 23 °C, pH 4.0, 4 hr): 39 g/L
solubility in methanol [4]: excellent solubility
solubility in the extraction medium after acid addition [4]: highly soluble
solubility of natamycin in the extraction medium [4]: decreases as the water increases
solubility ([4]; methanol, pH 2, organic solvent or mixture): 94 mg/mL (≈ 141 mM)
solubility ([4]; methanol, pH 3.8, organic solvent or mixture): 78 mg/mL (≈ 117 mM)
solubility ([4]; methanol, pH 4.5, organic solvent or mixture): 50 mg/mL (≈ 75.1 mM)
solubility ([4]; methanol, pH 7, organic solvent or mixture): 6 mg/mL (≈ 9.01 mM)
solubility ([4]; methanol/water, pH 2.4, organic solvent or mixture): 55 mg/mL (≈ 82.6 mM)
solubility ([4]; methanol/water, pH 3.3, organic solvent or mixture): 18 mg/mL (≈ 27 mM)
solubility ([4]; methanol/water, pH 7, organic solvent or mixture): 4 mg/mL (≈ 6.01 mM)
SMILES: C[C@@H]1C/C=C/C=C/C=C/C=C/[C@H](O[C@@H]2O[C@H](C)[C@@H](O)[C@H](N)[C@@H]2O)C[C@@H]2O[C@](O)(C[C@@H](O)C[C@H]3O[C@@H]3/C=C/C(=O)O1)C[C@H](O)[C@H]2C(=O)O [Natamycin, natamycin]
